Measurements as given in patent publication US20180228861A1, “COMPOSITION FOR TREATING DIABETES AND DYSLIPIDEMIA OBTAINED FROM THE EXTRACT OF COSTUS PICTUS D.DON PLANT AND A METHOD OF PREPARING THE SAME” (ARJUNA NATURAL EXTRACTS, LTD., priority 2012, published 2018).

Columns and labels:
[1] = test system: streptozotocin-induced Type 1 diabetic model in Wistar rats; experiment: Pancreatic histopathology in streptozotocin-induced diabetic rats; type: in vivo; details: for beta cell staining in islet of Langerhans (immune histochemistry, in words): FIG. 13-17
Experimental: (§1) The study was conducted in adult male Wistar rats weighing 200-250 gm for a period of 40 days (30 days of treatment and 10 days of induction). The animals were randomly divided into seven groups comprising six each. Diabetes was induced in all the groups except the normal control group by the intra peritoneal administration of streptozotocin at 50 mg/kg. […] The effect of the different fractions was assessed by measuring the fasting blood glucose level, post prandial blood glucose level, serum insulin levels and glycosylated Hb. The anti hyperlipidemic effect was assessed by the estimation of total cholesterol, triglyceride, LDL cholesterol, HDL cholesterol, VLDL, muscle glycogen and liver glycogen. The antioxidant effects of the different extracts were assessed by the measuring TBARS, superoxide dismutase (SOD), catalase, reduced glutathione (GSH) and glutathione peroxidase levels (GPx). TBARS was determined by TBA assay (Ohkawa et al., 1979), SOD was measured using the nitroblue tetrazolium reduction method (Kakkar et al., 1984), Catalase was assayed using the method described by Aebi (1974). GPx was measured as described by Flohe and Gunzler (1984), GSH was measured as per the method of Jollow et al., (1974). Histopathological examination of pancreas was conducted to assess the antidiabetic effect of the different fractions of Costus pictus D. Don.

[2] = test system: streptozotocin-induced Type 1 diabetic model in Wistar rats; experiment: Oral glucose tolerance test (post prandial glucose) in streptozotocin-induced diabetic rats; type: in vivo; details: OGTT, glucose 2.5 g/kg oral gavage
Experimental: The study was conducted in adult male Wistar rats weighing 200-250 gm for a period of 40 days (30 days of treatment and 10 days of induction). The animals were randomly divided into seven groups comprising six each. Diabetes was induced in all the groups except the normal control group by the intra peritoneal administration of streptozotocin at 50 mg/kg. After the induction of diabetes, one group was kept as diabetic untreated control and a positive control was maintained in which the animals were treated with standard drug, glibenclamide at 3 mg/kg orally. All the other diabetic induced groups were treated with different extracts at 300 mg/kg orally. The effect of the different fractions was assessed by measuring the fasting blood glucose level, post prandial blood glucose level, serum insulin levels and glycosylated Hb. The anti hyperlipidemic effect was assessed by the estimation of total cholesterol, triglyceride, LDL cholesterol, HDL cholesterol, VLDL, muscle glycogen and liver glycogen. The antioxidant effects of the different extracts were assessed by the measuring TBARS, superoxide dismutase (SOD), catalase, reduced glutathione (GSH) and glutathione peroxidase levels (GPx). TBARS was determined by TBA assay (Ohkawa et al., 1979), SOD was measured using the nitroblue tetrazolium reduction method (Kakkar et al., 1984), Catalase was assayed using the method described by Aebi (1974). GPx was measured as described by Flohe and Gunzler (1984), GSH was measured as per the method of Jollow et al., (1974). Histopathological examination of pancreas was conducted to assess the antidiabetic effect of the different fractions of Costus pictus D. Don.
Oral glucose tolerance test (OGTT) was performed following a glucose challenge of 2.5 g/kg by oral gavage. Blood glucose was recorded at 30 min (PPG1), 60 min (PPG2), 120 min (PPG3) and 240 min (PPG4), after the glucose challenge on day 1, day 15 and day 30 of the study.

[3] = test system: streptozotocin-induced Type 1 diabetic model in Wistar rats; experiment: Antioxidant enzymes and TBARS in streptozotocin-induced diabetic rats; type: in vivo; details: extracts 40 mg/kg orally, glibenclamide 3 mg/kg orally
Experimental: as §1

[4] = test system: streptozotocin-induced Type 1 diabetic model in Wistar rats; experiment: Muscle and liver glycogen in streptozotocin-induced diabetic rats; type: in vivo; details: extracts 40 mg/kg orally, glibenclamide 3 mg/kg orally
Experimental: as §1

[5] = test system: isolated mouse islets; experiment: In vitro insulin secretogogue effect using isolated mouse islets; type: cell-based, mice (Swiss albino strain); details: 10 nM
Text: In vitro insulin secretogogue effect of the different fractions of Costus pictus D. Don using isolated mouse islets.
Four to six weeks old male mice (Swiss albino strain; weighing 25±2 g) used for the study were maintained in the optimum environmental conditions.
Pancreata isolated from animals which were euthanized with CO2 anesthesia according the method of Shewadae et al., (1999) was removed aspectically. Washed thrice with Hank's Balanced Salt Solution (HBSS) and were subjected to collagenase digestion at 37° C. The pancreata was incubated in the dissociation medium (Dulbecco's modified minimum essential medium (DMEM) supplemented with collagenase, Soybean Trypsin Inhibitor and Bovine Serum Albumin fraction V) for 10 minutes. The procedure was repeated thrice and the dissociation was stopped by addition of chilled DMEM with 10% fetal bovine serum to the pancreatic digest. The mixture was centrifuged at 200×g for 10 minutes and the supernatant was discarded. After two washings with DMEM, the pellet was seeded in culture flasks containing DMEM pH-7.2 supplemented with 10% fetal bovine serum. The flasks were incubated at 37° C. in a CO2 incubator.
The viability of the islets was checked by Trypan blue dye exclusion test (Warburton and James, 1995) and this estimate had shown >98% of the cells were viable. […]

SMILES: COc1ccc(Cl)cc1C(=O)NCCc1ccc(S(=O)(=O)NC(=O)NC2CCCCC2)cc1 [glibenclamide]
- beta cell staining in islet of Langerhans (immune histochemistry, in words) ([1]; pancreas of streptozotocin-induced diabetic rats): moderately stained and comparable to group 1
- beta cell staining in islet of Langerhans (immune histochemistry, in words) ([1]; pancreas of streptozotocin-induced diabetic rats, listed as Glibenclamide): moderately stained beta cells
- mean number of islets ([1]; pancreas of streptozotocin-induced diabetic rats, normal group 36, untreated diabetic group 5): 18.66
- appearance of islets in pancreas sections (in words) ([1]; versus untreated diabetic control): less shrunken than the untreated diabetic control group
- PPG1. 1 ([2]; blood glucose at 30 min, day 1): 522.8
- PPG1. 15 ([2]; blood glucose at 30 min, day 15): 318.3
- PPG1. 30 ([2]; blood glucose at 30 min, day 30): 232.1
- PPG2. 1 ([2]; blood glucose at 60 min, day 1): 478.4
- PPG2. 15 ([2]; blood glucose at 60 min, day 15): 217.4
- PPG2. 30 ([2]; blood glucose at 60 min, day 30): 240.4
- PPG3. 1 ([2]; blood glucose at 120 min, day 1): 332.1
- PPG3. 15 ([2]; blood glucose at 120 min, day 15): 115.3
- PPG3. 30 ([2]; blood glucose at 120 min, day 30): 177.3
- PPG4. 1 ([2]; blood glucose at 240 min, day 1): 201.9
- PPG4. 15 ([2]; blood glucose at 240 min, day 15): 104.8
- PPG4. 30 ([2]; blood glucose at 240 min, day 30): 69.8
- Catalase [3]: 59.36 nM H2O2 decomposed/s/g
- GPx [3]: 7.54 U/mg of protein
- GSH [3]: 38.12 mg/100 g
- SOD [3]: 2.96 U/mg protein
- TBARS [3]: 0.80 mM MDA/100 g
- Liver glycogen [4]: 46 mg/g tissue
- Muscle glycogen [4]: 8 mg/g tissue
- Thirty minutes Concentration of insulin ([5]; thirty minutes): 3.77 ng/mL
- Zero minutes Concentration of insulin ([5]; zero minutes): 0.97 ng/mL
